Results: article PMC10746189, “Campylobacter jejuni uses energy taxis and a dehydrogenase enzyme for L-fucose chemotaxis” (mBio, 2023)

Target: T1, FucX (Campylobacter jejuni, UniProt Q0PB28)
T1 construct: gene Cj0485; His-tagged FucX from pET30a(+)-fucX, expressed in E. coli BL21, Ni-NTA purified, desalted
Assay: dehydrogenase assay, NADPH absorbance at […] nm
Type: biochemical
Settings: 5 nM protein; 1 mM L-fucose; 100 µM NADP+; 1 mM MgCl2; 50 mM Tris-HCl pH 7.5; room temperature

T1 sequence (Q0PB28 entry or part of it): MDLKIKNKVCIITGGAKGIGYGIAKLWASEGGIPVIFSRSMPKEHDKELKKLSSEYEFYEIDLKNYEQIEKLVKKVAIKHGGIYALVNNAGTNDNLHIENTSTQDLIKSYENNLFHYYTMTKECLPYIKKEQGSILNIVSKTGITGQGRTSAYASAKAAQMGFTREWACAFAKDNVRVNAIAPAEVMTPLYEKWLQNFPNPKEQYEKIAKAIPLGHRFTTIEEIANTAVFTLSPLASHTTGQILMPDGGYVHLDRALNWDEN

C[C@@H]1OC(O)[C@@H](O)[C@H](O)[C@@H]1O (stereo partly drawn) [L-fucose]
dehydrogenase assay, NADPH absorbance at 340 nm: L-Fucose dehydrogenase activity of indicated FucX pure proteins: (+), with L-fucose; (−), no L-fucose.
